Activity calls are given as the source filed them.
Key:
[1] = target: Botulinum neurotoxin type F (Clostridium botulinum, UniProt P30996); assay: High-throughput multiplex microsphere dose response for inhibitors of toxin protease, specifically Botulinum neurotoxin light chain F protease, compounds from Cherry Pick 02.; type: functional; conditions: read-out: EC50_MICROM
[2] = HeLa cell cytotoxicity, dose response, cytotoxicity control for MgcRacGAP inhibitor project (AID 624300); type: functional
Lethal factor = Lethal factor (Bacillus anthracis, UniProt P15917); assay: High-throughput multiplex microsphere dose response for inhibitors of toxin protease, specifically Lethal Factor protease, compounds from Cherry Pick 02.; type: functional; conditions: read-out: EC50_MICROM
Nonstructural protein 1 = Nonstructural protein 1 (Influenza A virus, UniProt Q194T2); type: functional, Influenza A virus (A/California/07/2009(H1N1))
[3] = target: Botulinum neurotoxin type A (Clostridium botulinum (strain Hall / ATCC 3502 / NCTC 13319 / Type A), UniProt P0DPI1); assay: High-throughput multiplex microsphere dose response for inhibitors of toxin protease, specifically Botulinum neurotoxin light chain A protease, compounds from Cherry Pick 02.; type: functional; conditions: read-out: EC50_MICROM
[4] = target: T1, Histone-lysine N-methyltransferase NSD2 (Homo sapiens, UniProt O96028); type: biochemical
T1 sequence (O96028 whole entry): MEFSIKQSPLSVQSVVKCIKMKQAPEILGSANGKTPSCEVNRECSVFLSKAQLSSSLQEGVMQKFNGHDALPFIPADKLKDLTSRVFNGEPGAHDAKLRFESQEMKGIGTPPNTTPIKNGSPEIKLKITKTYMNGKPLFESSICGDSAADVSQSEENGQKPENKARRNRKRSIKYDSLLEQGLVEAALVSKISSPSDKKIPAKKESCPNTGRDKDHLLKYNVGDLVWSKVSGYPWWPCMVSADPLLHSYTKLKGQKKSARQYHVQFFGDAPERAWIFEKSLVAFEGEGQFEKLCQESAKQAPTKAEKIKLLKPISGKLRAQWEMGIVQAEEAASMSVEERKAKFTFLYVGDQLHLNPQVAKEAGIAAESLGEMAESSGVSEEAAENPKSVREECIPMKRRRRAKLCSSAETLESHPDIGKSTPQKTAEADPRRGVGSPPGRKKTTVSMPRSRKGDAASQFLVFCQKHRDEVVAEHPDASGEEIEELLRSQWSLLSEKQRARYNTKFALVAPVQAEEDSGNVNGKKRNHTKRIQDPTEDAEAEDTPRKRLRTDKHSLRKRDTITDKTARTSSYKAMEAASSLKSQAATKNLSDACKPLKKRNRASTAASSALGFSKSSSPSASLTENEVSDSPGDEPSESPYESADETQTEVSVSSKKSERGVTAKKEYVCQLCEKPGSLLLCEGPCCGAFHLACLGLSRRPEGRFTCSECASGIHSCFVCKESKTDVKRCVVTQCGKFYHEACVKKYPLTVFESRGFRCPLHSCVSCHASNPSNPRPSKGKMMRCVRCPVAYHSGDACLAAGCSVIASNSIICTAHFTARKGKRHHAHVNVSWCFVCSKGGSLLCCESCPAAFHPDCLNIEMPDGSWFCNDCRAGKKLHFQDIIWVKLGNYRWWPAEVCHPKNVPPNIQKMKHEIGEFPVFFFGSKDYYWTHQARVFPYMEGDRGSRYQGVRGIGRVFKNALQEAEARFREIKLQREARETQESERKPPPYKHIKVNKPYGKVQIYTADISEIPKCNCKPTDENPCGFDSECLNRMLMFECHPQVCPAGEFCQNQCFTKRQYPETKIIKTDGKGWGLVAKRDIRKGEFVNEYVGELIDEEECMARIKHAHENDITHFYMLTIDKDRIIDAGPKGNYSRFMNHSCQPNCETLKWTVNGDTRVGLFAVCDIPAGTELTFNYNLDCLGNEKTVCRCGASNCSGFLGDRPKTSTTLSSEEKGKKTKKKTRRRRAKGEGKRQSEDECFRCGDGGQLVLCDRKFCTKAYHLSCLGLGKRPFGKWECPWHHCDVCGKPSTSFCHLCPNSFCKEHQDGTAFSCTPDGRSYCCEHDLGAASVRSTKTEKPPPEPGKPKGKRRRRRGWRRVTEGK

[5] = target: T2, Rac GTPase-activating protein 1 (Homo sapiens, UniProt Q9H0H5); assay: MgcRacGAP GTPase-activating activity inhibitors, confirmation, biochemical, ADP Hunter fluorescence, primary and confirmatory (AID 624330); type: functional
T2 sequence (Q9H0H5 whole entry): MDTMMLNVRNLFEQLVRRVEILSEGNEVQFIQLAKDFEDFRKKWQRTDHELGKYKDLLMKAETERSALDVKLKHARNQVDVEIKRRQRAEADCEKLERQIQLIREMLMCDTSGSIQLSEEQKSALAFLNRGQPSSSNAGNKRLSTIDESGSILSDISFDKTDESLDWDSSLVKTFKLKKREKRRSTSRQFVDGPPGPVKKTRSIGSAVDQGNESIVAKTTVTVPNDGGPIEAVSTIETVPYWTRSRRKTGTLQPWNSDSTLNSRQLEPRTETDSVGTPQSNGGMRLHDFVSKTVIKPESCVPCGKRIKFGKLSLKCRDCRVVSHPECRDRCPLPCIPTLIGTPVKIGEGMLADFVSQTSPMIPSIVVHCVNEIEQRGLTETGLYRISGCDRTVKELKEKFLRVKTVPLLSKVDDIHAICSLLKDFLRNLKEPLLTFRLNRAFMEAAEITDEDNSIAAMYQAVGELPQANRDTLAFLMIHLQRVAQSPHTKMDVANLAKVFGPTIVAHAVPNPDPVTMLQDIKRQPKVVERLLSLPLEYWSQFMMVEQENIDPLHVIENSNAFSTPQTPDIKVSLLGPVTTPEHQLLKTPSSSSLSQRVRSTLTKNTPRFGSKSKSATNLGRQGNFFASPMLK

[6] = target: Homeodomain-interacting protein kinase 2 (Homo sapiens, UniProt Q9H2X6); type: functional;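 also: measured within a kinome-wide kinase profiling panel, HIPK2 being one panel member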
[7] = target: cAMP-dependent protein kinase catalytic subunit alpha (Homo sapiens, UniProt P17612); type: functional
[8] = target: Interleukin-1 receptor-associated kinase 4 (Homo sapiens, UniProt Q9NWZ3); type: functional
[9] = target: Serine/threonine-protein kinase pim-1 (Homo sapiens, UniProt P11309); type: functional
[10] = target: Mitogen-activated protein kinase kinase kinase kinase 4 (Homo sapiens, UniProt O95819); type: functional
[11] = target: Cell division cycle 7-related protein kinase (Homo sapiens, UniProt O00311); type: functional;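 also: value obtained from a kinome-wide kinase panel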
[12] = target: Dual specificity protein kinase CLK4 (Homo sapiens, UniProt Q9HAZ1); type: functional
[13] = target: Glycogen synthase kinase-3 beta (Homo sapiens, UniProt P49841); type: functional;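 also: value comes from a broad kinome profiling panel, with GSK3B as the panel member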
Chain of Glycogen synthase kinase-3 beta (P49841 whole entry): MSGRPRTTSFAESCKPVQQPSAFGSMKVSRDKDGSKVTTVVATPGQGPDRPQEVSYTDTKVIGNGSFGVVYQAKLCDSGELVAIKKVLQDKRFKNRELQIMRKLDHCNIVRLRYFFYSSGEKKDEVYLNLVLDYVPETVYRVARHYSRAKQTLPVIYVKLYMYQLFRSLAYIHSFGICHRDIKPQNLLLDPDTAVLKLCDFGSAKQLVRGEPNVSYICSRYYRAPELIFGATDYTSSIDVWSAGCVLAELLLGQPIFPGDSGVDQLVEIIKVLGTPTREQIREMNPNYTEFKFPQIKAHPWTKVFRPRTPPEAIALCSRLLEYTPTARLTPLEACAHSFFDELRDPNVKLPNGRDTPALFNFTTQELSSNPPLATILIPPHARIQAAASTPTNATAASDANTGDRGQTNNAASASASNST

Chain of Botulinum neurotoxin type F (P30996 1-436 limits assumed): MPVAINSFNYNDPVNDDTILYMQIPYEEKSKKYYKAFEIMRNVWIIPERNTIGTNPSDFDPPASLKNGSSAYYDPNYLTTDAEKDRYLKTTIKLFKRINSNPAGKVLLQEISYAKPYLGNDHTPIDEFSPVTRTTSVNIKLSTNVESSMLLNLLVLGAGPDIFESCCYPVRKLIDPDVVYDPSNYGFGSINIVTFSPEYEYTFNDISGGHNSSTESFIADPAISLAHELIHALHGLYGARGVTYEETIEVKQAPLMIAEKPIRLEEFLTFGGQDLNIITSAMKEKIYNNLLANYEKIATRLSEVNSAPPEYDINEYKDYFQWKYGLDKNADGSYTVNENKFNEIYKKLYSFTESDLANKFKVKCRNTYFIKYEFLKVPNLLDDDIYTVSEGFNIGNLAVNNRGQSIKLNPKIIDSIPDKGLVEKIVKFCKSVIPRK
Chain of Botulinum neurotoxin type A (P0DPI1 2-448 limits assumed): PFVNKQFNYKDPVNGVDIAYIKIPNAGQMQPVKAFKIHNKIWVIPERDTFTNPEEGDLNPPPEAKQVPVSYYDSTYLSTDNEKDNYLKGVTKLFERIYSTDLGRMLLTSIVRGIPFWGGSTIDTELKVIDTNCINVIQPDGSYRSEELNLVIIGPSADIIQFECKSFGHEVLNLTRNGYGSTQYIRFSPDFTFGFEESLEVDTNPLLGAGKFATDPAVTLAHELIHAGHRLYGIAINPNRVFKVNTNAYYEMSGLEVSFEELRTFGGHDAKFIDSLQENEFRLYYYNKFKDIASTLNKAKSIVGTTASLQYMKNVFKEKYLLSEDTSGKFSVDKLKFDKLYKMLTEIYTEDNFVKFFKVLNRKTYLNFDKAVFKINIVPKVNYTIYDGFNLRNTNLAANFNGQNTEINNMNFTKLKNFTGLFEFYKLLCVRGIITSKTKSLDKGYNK
Chain of Nonstructural protein 1 (Q194T2 whole entry): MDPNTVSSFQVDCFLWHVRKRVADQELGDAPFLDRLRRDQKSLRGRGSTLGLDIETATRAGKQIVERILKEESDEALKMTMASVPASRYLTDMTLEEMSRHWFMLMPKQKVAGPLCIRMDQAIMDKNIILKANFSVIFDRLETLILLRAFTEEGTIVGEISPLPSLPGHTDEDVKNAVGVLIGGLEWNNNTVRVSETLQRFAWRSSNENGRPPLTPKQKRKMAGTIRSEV
Chain of Interleukin-1 receptor-associated kinase 4 (Q9NWZ3 whole entry): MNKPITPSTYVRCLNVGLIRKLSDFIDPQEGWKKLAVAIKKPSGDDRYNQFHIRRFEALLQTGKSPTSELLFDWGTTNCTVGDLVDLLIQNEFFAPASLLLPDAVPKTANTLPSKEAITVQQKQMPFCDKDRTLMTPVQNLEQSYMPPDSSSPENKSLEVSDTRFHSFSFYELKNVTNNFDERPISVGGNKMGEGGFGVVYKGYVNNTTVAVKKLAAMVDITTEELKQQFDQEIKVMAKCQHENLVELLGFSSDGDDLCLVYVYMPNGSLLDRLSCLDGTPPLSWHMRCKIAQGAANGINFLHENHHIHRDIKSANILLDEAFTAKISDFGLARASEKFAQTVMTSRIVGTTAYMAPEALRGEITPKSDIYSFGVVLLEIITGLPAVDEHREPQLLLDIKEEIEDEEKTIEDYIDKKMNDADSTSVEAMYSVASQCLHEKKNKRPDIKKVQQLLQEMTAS
Chain of Serine/threonine-protein kinase pim-1 (P11309 whole entry): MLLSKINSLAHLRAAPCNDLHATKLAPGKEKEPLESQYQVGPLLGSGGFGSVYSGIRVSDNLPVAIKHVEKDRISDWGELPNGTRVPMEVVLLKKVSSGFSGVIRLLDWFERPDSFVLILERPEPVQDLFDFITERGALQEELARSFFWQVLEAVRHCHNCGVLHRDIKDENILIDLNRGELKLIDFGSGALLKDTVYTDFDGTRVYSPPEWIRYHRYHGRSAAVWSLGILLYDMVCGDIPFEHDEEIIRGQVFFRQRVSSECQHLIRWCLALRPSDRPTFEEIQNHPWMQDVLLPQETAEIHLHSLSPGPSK
Chain of Homeodomain-interacting protein kinase 2 (Q9H2X6 whole entry): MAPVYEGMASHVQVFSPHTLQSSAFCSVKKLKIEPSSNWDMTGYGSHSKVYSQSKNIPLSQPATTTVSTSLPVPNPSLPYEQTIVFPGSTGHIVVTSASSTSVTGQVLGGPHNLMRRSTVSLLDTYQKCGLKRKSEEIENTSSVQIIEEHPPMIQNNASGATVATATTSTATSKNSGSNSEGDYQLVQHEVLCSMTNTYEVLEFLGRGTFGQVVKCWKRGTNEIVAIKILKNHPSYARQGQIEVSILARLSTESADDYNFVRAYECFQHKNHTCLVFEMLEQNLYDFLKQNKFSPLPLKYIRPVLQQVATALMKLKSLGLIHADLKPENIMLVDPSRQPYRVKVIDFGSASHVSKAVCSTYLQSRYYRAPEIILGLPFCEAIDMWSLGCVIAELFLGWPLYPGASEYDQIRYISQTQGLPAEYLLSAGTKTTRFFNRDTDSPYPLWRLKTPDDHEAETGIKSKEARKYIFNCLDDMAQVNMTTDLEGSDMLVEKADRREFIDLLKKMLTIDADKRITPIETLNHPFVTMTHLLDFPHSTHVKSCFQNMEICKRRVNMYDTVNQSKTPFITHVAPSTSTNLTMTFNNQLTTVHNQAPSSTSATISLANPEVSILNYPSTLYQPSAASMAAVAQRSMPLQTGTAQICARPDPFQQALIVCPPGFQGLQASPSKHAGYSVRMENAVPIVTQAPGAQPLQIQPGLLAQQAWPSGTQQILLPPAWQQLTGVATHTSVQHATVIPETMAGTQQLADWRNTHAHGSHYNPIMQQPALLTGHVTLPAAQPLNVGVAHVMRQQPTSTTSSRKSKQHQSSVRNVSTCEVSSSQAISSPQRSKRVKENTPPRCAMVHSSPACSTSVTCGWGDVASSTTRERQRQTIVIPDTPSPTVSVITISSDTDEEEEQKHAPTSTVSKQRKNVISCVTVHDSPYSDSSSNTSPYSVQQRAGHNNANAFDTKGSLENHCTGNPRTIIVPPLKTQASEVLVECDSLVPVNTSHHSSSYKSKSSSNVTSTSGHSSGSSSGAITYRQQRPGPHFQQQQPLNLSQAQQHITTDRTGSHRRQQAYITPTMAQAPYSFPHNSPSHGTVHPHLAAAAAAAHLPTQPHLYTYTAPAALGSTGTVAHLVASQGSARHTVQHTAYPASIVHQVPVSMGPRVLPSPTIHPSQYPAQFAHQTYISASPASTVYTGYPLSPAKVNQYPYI
Chain of Dual specificity protein kinase CLK4 (Q9HAZ1 whole entry): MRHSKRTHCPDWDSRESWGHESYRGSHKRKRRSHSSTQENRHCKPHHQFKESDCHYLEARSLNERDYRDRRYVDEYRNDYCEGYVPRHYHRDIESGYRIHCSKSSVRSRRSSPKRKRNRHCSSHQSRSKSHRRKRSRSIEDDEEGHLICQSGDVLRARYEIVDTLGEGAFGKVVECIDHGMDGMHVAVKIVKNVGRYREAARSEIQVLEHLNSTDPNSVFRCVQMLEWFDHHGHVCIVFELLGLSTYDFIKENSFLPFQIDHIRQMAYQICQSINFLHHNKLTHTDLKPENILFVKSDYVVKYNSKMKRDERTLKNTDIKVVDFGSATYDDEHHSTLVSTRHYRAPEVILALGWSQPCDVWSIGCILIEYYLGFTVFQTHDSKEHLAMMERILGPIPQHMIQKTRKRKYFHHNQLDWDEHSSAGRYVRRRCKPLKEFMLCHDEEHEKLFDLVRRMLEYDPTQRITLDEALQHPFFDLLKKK
Chain of Lethal factor (P15917 whole entry): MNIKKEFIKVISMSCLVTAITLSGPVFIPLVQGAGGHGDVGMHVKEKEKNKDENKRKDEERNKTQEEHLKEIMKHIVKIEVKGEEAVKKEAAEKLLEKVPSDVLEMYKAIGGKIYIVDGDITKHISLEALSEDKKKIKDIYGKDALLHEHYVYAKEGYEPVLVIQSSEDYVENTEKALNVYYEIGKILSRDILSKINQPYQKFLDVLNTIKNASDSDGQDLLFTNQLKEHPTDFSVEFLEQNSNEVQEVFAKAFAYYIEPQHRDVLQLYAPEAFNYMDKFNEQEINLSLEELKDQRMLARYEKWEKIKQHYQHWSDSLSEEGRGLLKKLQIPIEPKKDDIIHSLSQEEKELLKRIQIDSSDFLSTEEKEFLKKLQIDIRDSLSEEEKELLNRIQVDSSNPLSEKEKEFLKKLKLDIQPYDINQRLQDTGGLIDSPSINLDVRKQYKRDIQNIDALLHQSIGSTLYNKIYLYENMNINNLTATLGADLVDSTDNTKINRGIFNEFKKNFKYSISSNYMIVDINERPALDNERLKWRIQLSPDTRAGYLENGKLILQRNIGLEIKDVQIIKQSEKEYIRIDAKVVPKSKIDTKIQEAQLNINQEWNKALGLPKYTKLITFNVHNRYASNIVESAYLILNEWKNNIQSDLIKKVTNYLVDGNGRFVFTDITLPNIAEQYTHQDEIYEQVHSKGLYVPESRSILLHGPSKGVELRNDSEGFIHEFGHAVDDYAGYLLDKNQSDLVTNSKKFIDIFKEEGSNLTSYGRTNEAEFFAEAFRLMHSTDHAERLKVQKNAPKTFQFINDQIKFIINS

SMILES	EC50 [1]	CC50 [2]	EC50 (Lethal factor)	IC50 (Nonstructural protein 1)	EC50 [3]	AC50 [4]	IC50 [5]	Ki [6]	Ki [7]	Ki [8]	Ki [9]	Ki [10]	Ki [11]	Ki [12]	Ki [13]
CN(C)c1ccc(/C=C2/C[N+](C)(C)C/C(=C/c3ccc(N(C)C)cc3)C2=O)cc1	> 20 µM (inactive)	100 µM (active)	0.6 µM (active)	6.59 µM (active)	1.6 µM (active)	11.9 µM (active)	82.9 µM (active)	–	–	–	–	–	–	–	–
COCCN(CCOC)c1cc(-c2c[nH]c3ncccc23)cc(Cl)n1	–	–	–	–	–	–	–	0.251 µM (active)	0.501 µM (active)	2.51 µM (active)	1.26 µM (active)	0.02 µM (active)	0.01 µM (active)	0.01 µM (active)	1 µM (active)

From ChEMBL document CHEMBL1201862, “PubChem BioAssay data set” (2004)
